From US20090022684A1, “Methods for hematopoietic stimulation” (priority 2006, published 2009)
Where two headings read alike, the source gives them in different places. Positions of bridges follow the written chain, without caps; N, C: chain ends. Residues, ends and D or L forms follow the SMILES beside them.

Assay: Phase I clinical trial: plasma pharmacokinetics of the peptide
Type: in vivo, human
Conditions: for Dose Proportionality Day 1 AUC(0-tlast)/Dose / Dose Proportionality Day 1 Cmax/Dose / Dose Proportionality Day 7 AUC(0-τ)/Dose / Dose Proportionality Day 7 Cmax/Dose / Tmax / Cmax / half-life / AUC(0-t) / AUC / AUC(0-inf) / Vd/F / CL/F: plasma; for Tmax / Cmax / half-life / AUC(0-t) / AUC / AUC(0-inf) / Vd/F / CL/F: human, sc; for AUC(0-t): read-out: AUC(0-tlast); for AUC: read-out: AUC(0-τ); for Vd/F: read-out: Vz/F
Experimental: A Phase I, single-center, randomized double blind, placebo-controlled, multiple-escalating-dose study in healthy older volunteers was carried out for the peptide [Leu^27]cyclo(Glu^22-Lys^2 1)-hPTH-(1-31)-NH2 (SEQ ID NO: 4). Subjects were healthy males and females (non-reproductive potential), aged 40 to 65 years. […] […] For each dosage level, 2 subjects (I male and I female) received placebo and 6 subjects (3 males and 3 females) received the peptide daily.
Pharmacokinetics. Plasma concentrations of the peptide were analyzed using the WinNonlin 4.0 Noncompartmental module (Pharsight Inc., Mountainview, Calif.) or equivalent. The following pharmacokinetic parameters were computed from the peptide plasma concentration-time data (See FIGS. 4 and 5): • AUC(0-tlast): The area under the plasma concentration versus time curve, from time 0 to the last measurable concentration, as calculated by the linear trapezoidal method (Day 1). • AUC(0-τ): The area under the plasma concentration versus time curve, from time 0 to the last measurable concentration, as calculated by the linear trapezoidal method (Day 7). • AUC(0-∞) or AUCinf: The area under the plasma concentration versus time curve from time 0 to infinity. AUC(0-∞) is calculated as the sum of the AUC(0-tlast) plus the ratio of the last measurable plasma concentration to the elimination rate constant (Clast/kel), where Clast is the predicted concentration at the time of the last measurable concentration, as determined by linear regression, and kel is the apparent first-order elimination rate constant (Day 1). • AUC/AUCinf: The ratio of AUC(0-tlast) to AUC(0-∞). • Cmax: Maximum measured plasma concentration over the time span specified. • Tmax: Time of the maximum measured plasma concentration. If the maximum value occurs at more than one time point, Tmax is defined as the first time point with this value. • kel: Apparent first-order terminal elimination rate constant calculated from a semi-log plot of the plasma concentration versus time curve. This parameter was calculated by linear least squares regression analysis using the maximum number of points in the terminal log-linear phase (e.g. three or more non-zero plasma concentrations). • t1/2: The apparent first-order terminal elimination half-life was calculated as 0.693/kel. • Vz/F: Apparent volume of distribution of a drug following subcutaneous administration, calculated as Dose/( AUC(0-∞)·kel), (Day 1). • CL/F: Apparent total body clearance of a drug following […], calculated as Dose/AUC(0-∞), (Day 1).
Accumulation Index: Calculated as AUC(0-τ) Day 7/AUC(0-tlast) Day 1.

[1] = both sexes, 10 ug, Day 1, 10 μg s.c., geometric mean (CV %)
[2] = both sexes, 10 ug, Day 7, 10 μg s.c. daily, geometric mean (CV %)
[3] = both sexes, 20 ug, Day 1, 20 μg s.c., geometric mean (CV %)
[4] = both sexes, 20 ug, Day 7, 20 μg s.c. daily, geometric mean (CV %)
[5] = both sexes, 40 ug, Day 1, 40 μg s.c., geometric mean (CV %)
[6] = both sexes, 40 ug, Day 7, 40 μg s.c. daily, geometric mean (CV %)
[7] = both sexes, 60 ug, Day 1, 60 μg s.c., arithmetic mean (CV %)
[8] = both sexes, 60 ug, Day 1, 60 μg s.c., geometric mean (CV %)
[9] = both sexes, 60 ug, Day 7, 60 μg s.c. daily, geometric mean (CV %)
[10] = both sexes, 80 ug, Day 1, 80 μg s.c., arithmetic mean (CV %)
[11] = both sexes, 80 ug, Day 1, 80 μg s.c., geometric mean (CV %)
[12] = both sexes, 80 ug, Day 7, 80 μg s.c. daily, geometric mean (CV %)
[13] = both sexes, 20 ug, Day 1, 20 μg s.c., n = 1
[14] = both sexes, 40 ug, Day 1, 40 μg s.c., n = 1

In the case of `CC[C@H](C)[C@H](NC(=O)[C@H](CCC(=O)O)NC(=O)[C@H](CO)NC(=O)[C@@H](NC(=O)[C@@H](N)CO)C(C)C)C(=O)N[C@@H](CCC(N)=O)C(=O)N[C@@H](CC(C)C)C(=O)N[C@@H](CCSC)C(=O)N[C@@H](Cc1c[nH]cn1)C(=O)N[C@@H](CC(N)=O)C(=O)N[C@@H](CC(C)C)C(=O)NCC(=O)N[C@@H](CCCCN)C(=O)N[C@@H](Cc1c[nH]cn1)C(=O)N[C@@H](CC(C)C)C(=O)N[C@@H](CC(N)=O)C(=O)N[C@@H](CO)C(=O)N[C@@H](CCSC)C(=O)N[C@@H](CCC(=O)O)C(=O)N[C@@H](CCCN=C(N)N)C(=O)N[C@H](C(=O)N[C@H]1CCC(=O)NCCCC[C@@H](C(=O)N[C@@H](CC(C)C)C(=O)N[C@@H](CC(C)C)C(=O)N[C@@H](CCC(N)=O)C(=O)N[C@@H](CC(=O)O)C(=O)N[C@H](C(N)=O)C(C)C)NC(=O)[C@H](CCCN=C(N)N)NC(=O)[C@H](CC(C)C)NC(=O)[C@H](Cc2c[nH]c3ccccc23)NC1=O)C(C)C` [[Leu^27]cyclo(Glu^22-Lys^26)-hPTH-(1-31)-NH2] (H-SVSEIQLMHNLGKHLNSMERVEWLRKLLQDV-NH2; lactam 22-26), the “accumulation” value (20 μg, 60 μg and 80 μg dose levels) was “no observed accumulation”, the “Dose Proportionality Day 1 AUC(0-tlast)/Dose” value (Dose Level 10 μg) was 1.08 and the “Dose Proportionality Day 1 Cmax/Dose” value (Dose Level 10 μg) was 2.35. For the same compound, the “Dose Proportionality Day 7 AUC(0-τ)/Dose” value (Dose Level 10 μg) was 2.06, the “Dose Proportionality Day 7 Cmax/Dose” value (Dose Level 10 μg) was 3.13 and the “Dose Proportionality Day 1 AUC(0-tlast)/Dose” value (Dose Level 20 μg) was 1.10. The “Dose Proportionality Day 1 Cmax/Dose” value (Dose Level 20 μg) was 1.66, the “Dose Proportionality Day 7 AUC(0-τ)/Dose” value (Dose Level 20 μg) was 1.14 and the “Dose Proportionality Day 7 Cmax/Dose” value (Dose Level 20 μg) was 1.95. The “Dose Proportionality Day 1 AUC(0-tlast)/Dose” value (Dose Level 30 μg) was 3.30, the “Dose Proportionality Day 1 Cmax/Dose” value (Dose Level 30 μg) was 2.92 and the “Dose Proportionality Day 7 AUC(0-τ)/Dose” value (Dose Level 30 μg) was 3.58. For the same compound, the “Dose Proportionality Day 7 Cmax/Dose” value (Dose Level 30 μg) was 3.18, the “Dose Proportionality Day 1 AUC(0-tlast)/Dose” value (Dose Level 40 μg) was 1.89 and the “Dose Proportionality Day 1 Cmax/Dose” value (Dose Level 40 μg) was 2.68. The “Dose Proportionality Day 7 AUC(0-τ)/Dose” value (Dose Level 40 μg) was 2.68, the “Dose Proportionality Day 7 Cmax/Dose” value (Dose Level 40 μg) was 3.19 and the “Dose Proportionality Day 1 AUC(0-tlast)/Dose” value (Dose Level 60 μg) was 1.61. For the same compound, the “Dose Proportionality Day 1 Cmax/Dose” value (Dose Level 60 μg) was 1.85, the “Dose Proportionality Day 7 AUC(0-τ)/Dose” value (Dose Level 60 μg) was 1.96 and the “Dose Proportionality Day 7 Cmax/Dose” value (Dose Level 60 μg) was 2.21. It also gave a Tmax (both sexes, 10 ug, Day 1, 10 μg s.c., arithmetic mean (CV %)) of 15 min, a Cmax [1] of 0.0235 ng/mL and a Tmax (both sexes, 10 ug, Day 7, 10 μg s.c. daily, arithmetic mean (CV %)) of 15 min. The Cmax [2] was 0.0313 ng/mL, the Tmax (both sexes, 20 ug, Day 1, 20 μg s.c., arithmetic mean (CV %)) was 20 min and the Cmax [3] was 0.0332 ng/mL. For the same compound, the Tmax (both sexes, 20 ug, Day 7, 20 μg s.c. daily, arithmetic mean (CV %)) was 25 min, the Cmax [4] was 0.0391 ng/mL and the Tmax (both sexes, 40 ug, Day 1, 40 μg s.c., arithmetic mean (CV %)) was 20.3 min. The Cmax [5] was 0.107 ng/mL, the Tmax (both sexes, 40 ug, Day 7, 40 μg s.c. daily, arithmetic mean (CV %)) was 15 min and the Cmax [6] was 0.128 ng/mL. The Tmax [7] was 17.6 min, the Cmax [8] was 0.111 ng/mL and the Tmax (both sexes, 60 ug, Day 7, 60 μg s.c. daily, arithmetic mean (CV %)) was 15 min. It also gave a Cmax [9] of 0.133 ng/mL, a Tmax [10] of 24 min and a Cmax [11] of 0.234 ng/mL. For the same compound, the Tmax (both sexes, 80 ug, Day 7, 80 μg s.c. daily, arithmetic mean (CV %)) was 15.7 min, the Cmax [12] was 0.254 ng/mL and the half-life (both sexes, from 20 μg dose to 80 μg dose, s.c., read-out: mean t1/2 across dose groups) was 32.8 to 46.7 min. It also gave an AUC(0-t) [1] of 0.0108 ng·h/mL, an AUC [2] of 0.0206 ng·h/mL and an AUC(0-t) [3] of 0.022 ng·h/mL. The AUC(0-inf) [13] was 0.092 ng·h/mL, the Vd/F [13] was 171 L and the half-life (both sexes, 20 ug, Day 1, 20 μg s.c., n = 1, read-out: t½ (converted)) was 32.8 min. For the same compound, the AUC [4] was 0.0228 ng·h/mL, the AUC(0-t) [5] was 0.0755 ng·h/mL and the AUC(0-inf) [14] was 0.134 ng·h/mL. It also gave a Vd/F [14] of 247 L, a half-life (both sexes, 40 ug, Day 1, 40 μg s.c., n = 1, read-out: t½ (converted)) of 34.6 min and an AUC [6] of 0.107 ng·h/mL. For the same compound, the CL/F [7] was 7770 mL/min, the Vd/F [7] was 477 L and the AUC(0-inf) [8] was 0.139 ng·h/mL. It also gave an AUC(0-t) [8] of 0.0965 ng·h/mL, a half-life (both sexes, 60 ug, Day 1, 60 μg s.c., mean (CV %), read-out: t½ (converted)) of 41.8 min and an AUC [9] of 0.118 ng·h/mL. The CL/F [10] was 5230 mL/min, the Vd/F [10] was 361 L and the AUC(0-inf) [11] was 0.257 ng·h/mL. For the same compound, the AUC(0-t) [11] was 0.264 ng·h/mL, the half-life (both sexes, 80 ug, Day 1, 80 μg s.c., mean (CV %), read-out: t½ (converted)) was 46.7 min and the AUC [12] was 0.286 ng·h/mL. For the same compound, the CL/F (20 ug, Day 1, 20 μg s.c., n = 1) was 3620 mL/min, the CL/F (40 ug, Day 1, 40 μg s.c., n = 1) was 4970 mL/min and the “dose proportionality of AUC(0-∞) (Day 1), AUC(0-τ) (Day 7), Cmax (Day 1) and Cmax (Day 7)” value (increasing dose from 10 μg to 80 μg) was “dose proportional”. The “pharmacokinetic behavior, comparison AUC(0-τ) Day 7/AUC(0-∞) Day 1” value (once-daily subcutaneous administration for 7 days of 60 μg and 80 μg doses) was “linear”.
